Reference: US10765625B2, “Knottin-drug conjugates and methods of using the same” (THE BOARD OF TRUSTEES OF THE LELAND STANFORD JUNIOR …, priority 2016, dated 2020)
Where two headings read alike, the source gives them in different places.

How the values were obtained:
U87MG cells [1] = experiment: Cell proliferation, CCK-8 colorimetric assay; format: cell-based
Protocol: (§1) U87MG, and PANC-1 cells were grown in Dulbecco's Modified Eagle Medium (DMEM) with 10% fetal bovine serum (FBS) and 1% penicillin/streptomycin. MDA-MB-468 cells were grown in DMEM and Ham's F-12 medium (DMEM/F12) with 10% FBS and 1% penicillin/streptomycin. A2780 and BxPC3 cells were grown in Roswell Park Memorial Institute medium (RPMI) 1640+L-glutamine, with 10% FBS and 1% penicillin/streptomycin. D270 cells were grown in MEM (Richter's modification, no phenol red) with 10% FBS and 0.1% Gentamicin. Unless otherwise specified, cells were incubated at 37° C., 5% CO2. Flow cytometry was performed using an EMD Millpore Guava EasyCyte 8HT flow cytometer and the resulting data were evaluated using FlowJo software provided by TreeStar, Inc. Cell proliferation was measured using the Dojindo Cell Counting Kit-8 by replacing the media in each well with 100 μL of media containing 10% WST-8. After incubation for 1 h at 37° C., absorbance, A, at 450 nm was measured with a BioTek Synergy H4 microtiter plate reader. The background signal of CCK-8 alone was subtracted from all samples. Cell proliferation was then expressed as a percentage of absorbance relative to the control of untreated cells (Equation 2). Nonlinear regression analysis was performed using GraphPad Prism.
Next, the potency of each KDC was tested in a cell-proliferation experiment. […] Cells were seeded in a 96-well plate at a density of 2,500 cells per well and grown overnight at 37° C., 5% CO2 in DMEM with 10% FBS and 1% penicillin/streptomycin. Cells were subsequently treated with 100 μL of fresh media, containing varying concentrations of drug, protein, or protein-drug conjugate and incubated for 4 d at 37° C., 5% CO2. Cell proliferation was measured according to the method described in Section 1.3. Error bars represent the standard deviation of experiments performed in triplicate. […] Given that the linker must be cleaved to release free Gemcitabine in order for the payload to become active, the low potency of 5b can be explained by the greater stability of the carbamate group as compared to the other linkers tested.

U87MG cells [2] = experiment: Premature drug release study: cell proliferation (CCK-8) with hENT1 inhibitor 6 co-administered; format: cell-based; conditions: for Effect of hENT1 inhibitor 6 on potency (ED50) (in words): U87MG cells, increasing concentrations of 6 up to 10 μM; for Fold Increase in ED50 in U87MG Cells: ED50 with 6 / ED50 without 6, minus 1
Protocol: as §1
The relative extent of premature drug-release in the cases of 5a, 5c, and 5d was next determined in order to identify the linker best-suited for delivering the drug payload intracellularly. An established technique for blocking the cellular uptake of Gemcitabine by using S (4-nitrobenzyl)-6-thioinosine (6) was employed, which is known to inhibit human equilibrative nucleoside transporters, such as hENT1. Because hENT1 is a critical regulator of the cellular internalization of Gemcitabine, it was reasoned that by inhibiting its activity with 6, the cytotoxic effect of any drug payload that was released in the extracellular environment could be diminished. It was anticipated that this would allow the distinction between KDCs that were potent due to the undesirable release of Gemcitabine outside of the cell from those that released Gemcitabine intracellularly (FIG. 6). The extent of premature drug release in the extracellular environment was studied by inhibiting activity of nucleoside transporters (such as hENT1) of U87MG cells through the use of the hENT1 inhibitor S-(4-nitrobenzyl)-6-thioinosine (6). […] In a similar fashion, it was expected that for KDCs which released a significant amount of the drug payload in the extracellular environment, an increase in the concentration of 6 should result in a concomitant increase in ED50 value.
Media used to prepare varying concentrations of drug, protein, or protein-drug conjugate also contained varying concentrations of the hENT1 inhibitor, 6. Additionally, prior to treatment, cell were incubated at 37° C., 5% CO2 with fresh media containing the varying concentrations of 6 for 2 h. Cell proliferation was measured using the Cell Counting Kit-8 by replacing the media in each well with 100 μL of media containing 10% WST-8. After incubation for 1 h at 37° C., absorbance at 450 nm was measured with a Synergy H4 microtiter plate reader. ED50 values were determined by nonlinear regression analysis. Example dose-response curves for 3 (FIG. 7) and 5d (FIG. 8) are provided. Cell proliferation was measured according to the method described in Section 1.3. Error bars represent the standard deviation of experiments performed in triplicate.
These values were normalized as Fold Increase in ED50 (defined in Equation 2) by dividing the ED50 of each drug when 6 was co-administered at concentration=C by the ED50 of that same drug when no 6 was added, then subtracting 1 (thus, a “0-fold increase” would mean no increase, while a “1-fold increase” would mean that the ED50 value had doubled). Fold Increase in ED50 for each drug at each concentration of 6 is provided in Table 5, and these values were used to generate FIG. 9.

U87MG cells [3] = experiment: Integrin-blocking competition: cell proliferation (CCK-8) after pre-treatment with EETI-2.5F (1); format: cell-based; conditions: 1 μM 1, 3 h pre-treatment and co-treatment
Protocol: as §1
One possible explanation for the apparent hENT1-independence of 5d is that its route of internalization could be integrin-mediated. The role of integrin-binding in the biological potency and hENT1-independence of 5d was determined. A competition experiment was carried out in which U87MG cells were pre-treated with unconjugated EETI-2.5F (1) in order to block integrins on the cell surface. The role of integrin-binding was studied by measuring the proliferation of U87MG cells that had been pre-treated with EETI-2.5F (1) when exposed to increasing doses of 3 and KDCs 5a, 5c, and 5d. […] Media used to prepare varying concentrations of drug, protein, or protein-drug conjugate also contained 1 μM of 1. Prior to treatment, cells were incubated for 3 h at 37° C., 5% CO2 with fresh media containing 1 μM 1. After this pre-treatment, cells were incubated with varying concentrations of 5a, 5c, or 5d for 24 h and then media was replaced with fresh media and cells were incubated for an additional 48 h. Cell proliferation was measured using the Cell Counting Kit-8 by replacing the media in each well with 100 μL of media containing 10% WST-8. After incubation for 1 h at 37° C., absorbance at 450 nm was measured with a Synergy H4 microtiter plate reader. Cell proliferation was measured according to the method described in Section 1.3. Error bars represent the standard deviation of experiments performed in triplicate.

[4] = tested on: A2780 ovarian cancer cells; experiment: Cell proliferation, CCK-8 colorimetric assay; format: cell-based; conditions: Homo sapiens, 96 h, 4 d after treatment, read-out: ED50 (nM), cell growth inhibition
Protocol: as §1
(§2) Having identified KDC 5d as a potent inhibitor of U87MG cells with desirable payload-release properties, its efficacy against a variety of other cell lines in comparison with Gemcitabine (3) was next tested. Cells were seeded in a 96-well plate at a density of 2,500 cells per well and grown overnight at 37° C., 5% CO2 in the media described in Section 1.3. Cells were subsequently treated with 100 μL of fresh media, containing 50 nM of 3 or 5d. Cells were incubated at 37° C., 5% CO2 for 4 d. Cell proliferation was measured using the Cell Counting Kit-8 by replacing the media in each well with 100 μL of media containing 10% WST-8. After incubation for 1 h at 37° C., absorbance at 450 nm was measured with a Synergy H4 microtiter plate reader. Cell proliferation was measured according to the method described in Section 1.3. Error bars represent the standard deviation of experiments performed in triplicate.

[5] = tested on: BxPC3 pancreatic cancer cells; experiment: Cell proliferation, CCK-8 colorimetric assay; format: cell-based; conditions: Homo sapiens, BXPC-3, 96 h, 4 d after treatment, read-out: ED50 (nM), cell growth inhibition
Protocol: as §1, §2

D270 glioblastoma cells = experiment: Cell proliferation, CCK-8 colorimetric assay; format: cell-based; conditions: 96 h, 4 d after treatment, read-out: ED50 (nM), cell growth inhibition
Protocol: as §1, §2

[6] = tested on: MDA-MB-468 breast cancer cells; experiment: Cell proliferation, CCK-8 colorimetric assay; format: cell-based; conditions: Homo sapiens, MDA-MB-468, 96 h, 4 d after treatment, read-out: ED50 (nM), cell growth inhibition
Protocol: as §1, §2

[7] = tested on: PANC-1 pancreatic cancer cells; experiment: Cell proliferation, CCK-8 colorimetric assay; format: cell-based; conditions: Homo sapiens, 96 h, 4 d after treatment, read-out: ED50 (nM), cell growth inhibition
Protocol: as §1, §2

U87MG cells [8] = experiment: Competition binding assay with AF488-labeled EETI-2.5F (AF488-1), flow cytometry; conditions: competition with 1 nM AF488-1, 4° C., 3 hours, read-out: IC50 (nM), binding affinity
Protocol: Once the knottin-drug conjugates 5a-d were prepared, their binding affinity to U87MG glioblastoma cells, which are known to have elevated expression of tumor-associated integrins, was tested. […] To measure the relative binding affinities of knottins 1 and 2 and KDCs 5a-d, competition binding assays were performed using AlexaFluor 488-conjugated EETI-2.5F (AF488-1) as previously described (J. W. Kim, et al., J. Am. Chem. Soc. 2015, 137, 6-9). Cells (5×10^4 per sample) were detached with 0.05% Trypsin-EDTA, washed with IBB (25 mM Tris pH 7.4, 150 mM NaCl, 2 mM CaCl2, 1 mM MgCl2, 1 mM MnCl2, and 0.1% bovine serum albumin), and incubated with 1 nM AF488-1 and varying concentrations of competitors in 800 μL of IBB at 4° C. for 3 hours. The cells were washed twice with 800 μL of PBSA (phosphate buffered saline containing 0.1% bovine serum albumin) and the fluorescence of the surface-bound AF488-1 was determined using flow cytometry. The fluorescence was normalized to that of cells treated with AF488-1 alone to obtain the fraction bound. Half-maximal inhibitory concentration (IC50) values were determined by nonlinear regression analysis. Error bars represent the standard deviation of experiments performed in triplicate.

EC50 (U87MG cells [1]; Homo sapiens, U-87 MG, 96 h, U87MG cells, 4 d incubation, vs untreated control, read-out: ED50 (nM), potency) | EC50 (U87MG cells [1]; Homo sapiens, U-87 MG, 96 h, U87MG glioblastoma, 4 d after treatment, read-out: ED50 (nM), cell growth inhibition) | EC50 [4] | EC50 [5] | EC50 (D270 glioblastoma cells) | EC50 [6] | EC50 [7] | Compound | Effect of hENT1 inhibitor 6 on potency (ED50) (in words) (U87MG cells [2]) | Fold Increase in ED50 in U87MG Cells (U87MG cells [2]; [6] = 0 nM) | Fold Increase in ED50 in U87MG Cells (U87MG cells [2]; [6] = 1 nM) | Fold Increase in ED50 in U87MG Cells (U87MG cells [2]; [6] = 10 nM) | Fold Increase in ED50 in U87MG Cells (U87MG cells [2]; [6] = 100 nM) | Fold Increase in ED50 in U87MG Cells (U87MG cells [2]; [6] = 1000 nM) | Fold Increase in ED50 in U87MG Cells (U87MG cells [2]; [6] = 10000 nM) | Effect of integrin blocking by pre-treatment with 1 on potency (in words) (U87MG cells [3]) | IC50 (U87MG cells [8]) | Potency / growth inhibition in U87MG cells (in words) (U87MG cells [1]; U87MG cells, 4 d) | EC50 (U87MG cells [1]; U87MG cells, 4 d incubation, vs untreated control, read-out: ED50 (nM), potency)
1.1 ± 1.4 nM | 1.7 ± 1.4 nM | 0.5 ± 0.02 nM | 18.4 ± 1.3 nM | 1.5 ± 0.4 nM | 17.3 ± 6.8 nM | 52.8 ± 4.9 nM | Nc1ccn([C@@H]2O[C@H](CO)[C@@H](O)C2(F)F)c(=O)n1 [compound 3, Gemcitabine, reference compound] | increased significantly | 0 | 0.2 ± 0.4 | 1.5 ± 0.1 | 15.8 ± 0.3 | 44.7 ± 0.3 | 128.6 ± 2.8 | no effect on potency | – | – | –
– | – | – | – | – | – | – | CC(C)C[C@@H]1NC(=O)[C@@H]2CSSC[C@@H](C(=O)NCC(=O)O)NC(=O)[C@H](Cc3ccccc3)NC(=O)CNC(=O)[C@H](CC(N)=O)NC(=O)[C@@H]3CCCN3C(=O)CNC(=O)[C@@H]3CSSC[C@H](NC(=O)[C@H]([C@@H](C)O)NC(=O)[C@H](CC(C)C)NC(=O)[C@@H]4CCCN4C(=O)[C@@H]4CCCN4C(=O)[C@H](CC(N)=O)NC(=O)[C@H](CC(=O)O)NC(=O)CNC(=O)[C@H](CCCNC(=N)N)NC(=O)[C@@H]4CCCN4C(=O)[C@H](CCCNC(=N)N)NC(=O)[C@@H]4CCCN4C(=O)[C@@H](NC(=O)CN)CSSC[C@H](NC(=O)CNC(=O)[C@H](C)NC1=O)C(=O)N[C@@H](C(C)C)C(=O)N3)C(=O)N[C@@H](CCCn1cc(CCC(=O)OC[C@H]3O[C@@H](n4ccc(N)nc4=O)C(F)(F)[C@@H]3O)nn1)C(=O)N[C@@H](CCC(N)=O)C(=O)N[C@@H](CC(=O)O)C(=O)N[C@@H](CO)C(=O)N[C@@H](CC(=O)O)C(=O)N2 [5a] | increased significantly | 0 | 1.1 ± 0.5 | 3.2 ± 0.3 | 14.5 ± 0.5 | 17.9 ± 0.0 | 134.7 ± 0.4 | did not diminish the potency | 5.2 ± 3.6 nM | low-nanomolar ED50 values | 8.5 ± 3.3 nM
